The test system of data set [1] is Streptococcus pyogenes A9604. The data set can be described thus: MIC, serial two-fold agar dilution, aerobic bacteria. In kind it is cell-based. To be noted: GC medium (Eiken).
Data set [2] has as its system Hemophilus influenzae A9832. Described as above. In kind it is cell-based. The conditions noted are these: Haemophilus influenzae, GC medium (Eiken).
Data set [3] relates to S. pyogenes A20201. The data set can be described thus: Bactericidal activity (MIC & MBC). It counts as cell-based. To be noted: Streptococcus pyogenes, A20201, 18 h.
The test system of data set [4] is Bacteroides fragilis A20929. The data set can be described thus: microbe, parasite or virus in culture.
The nature of data set [5]: Stability in solution. It counts as physicochemical.
Data set [6] relates to B. fragilis A20928-1. Briefly: Inoculum size effect on MIC, GAM agar. It counts as cell-based. The conditions noted are these: Bacteroides fragilis, A209281; inoculum size 1.2 × 10^6 cell/ml.
Data set [7] concerns C. perfringens A9635. Briefly: microbe, parasite or virus in culture. It counts as cell-based. The conditions noted are these: Clostridium perfringens.
Data set [8] deals with Streptococcus viridans A21354. Briefly: MIC, serial two-fold agar dilution, aerobic bacteria. It counts as cell-based. The conditions noted are these: GC medium (Eiken).
Data set [9] has as its system Neisseria meningitidis A21496. The data set is described as above. It counts as cell-based. To be noted: GC medium (Eiken).
The subject of data set [10] is Fusobacterium mortiferum ATCC 9817. The data set can be described thus: microbe, parasite or virus in culture. To be noted: ATCC9817.

Values after ≈ are worked out from the molar mass of the structure shown.

In the case of `COC(=O)C1C(C)OC2(C)CC(=O)C3OC12OC(C(C)/C=C(C)/C=C/C(=O)C1=C(O)CN(C)C1=O)C3C` (stereo not drawn) [Bu-2313A], the MIC stood at 0.8 µg/mL (≈ 1.55 µM) in data set [1]; 0.8 µg/mL (≈ 1.55 µM) in data set [2]; 0.2 µg/mL (≈ 0.386 µM) in data set [4]; 0.1 µg/mL (≈ 0.193 µM) in [6]; 0.1 µg/mL (≈ 0.193 µM) in [7] (A9635); 0.8 µg/mL (≈ 1.55 µM) in [8]. Further, the MIC in data set [9] came to 3.1 µg/mL (≈ 5.99 µM); in data set [10] it was 0.2 µg/mL (≈ 0.386 µM). The MBC in data set [3] came out at 12.5 µg/mL (≈ 24.2 µM); in data set [7] (A9635, 18 h), 12.5 µg/mL (≈ 24.2 µM). Besides, the stability result in data set [5] (acidic solution) is “stable”; in data set [5] (alkaline solution, N/10 NaOH, room temperature, overnight), “inactivated”.

(Values after patent US4169096A, “Antibiotic compounds” (priority 1977, dated 1979).)
